Data: patent publication US6737383B1, “Herbicidal oxadiazolidines” (priority 1999, dated 2004)

Assays:
[1] = system: Green foxtail; test: Test D green foxtail; type: in vivo; conditions: Postemergence, 0 to 100 scale, 0 no injury, 100 complete control
[2] = system: pitted morningglory; test: Test D pitted morningglory; type: in vivo, Ipomoea lacunosa; conditions: Postemergence, 0 to 100 scale
[3] = system: Johnson grass; test: Test D Johnson grass; type: in vivo, Sorghum halepense; conditions: Postemergence, 0 to 100 scale
[4] = system: lambsquarters; test: Test E lambsquarters; type: in vivo, Chenopodium album; conditions: Postemergence; for Plant response rating Lambsquarters: 0 to 100 scale
In short: (§1)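 Each compound, carried in a non-phytotoxic solvent blend including surfactant, was applied (postemergence: over the top of young plants at 1- to 4-leaf stage). Plants stayed in the greenhouse about 21 to 28 days before visual comparison with untreated controls.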

[5] = system: littleseed canarygrass; test: Test E littleseed canarygrass; type: in vivo, Phalaris minor; conditions: Preemergence
[6] = system: sugar beet; test: Test E sugar beet; type: in vivo, Beta vulgaris; conditions: Preemergence
[7] = system: annual bluegrass; test: Test E annual bluegrass; type: in vivo, Poa annua; conditions: Postemergence; for Plant response rating, Annual bluegras: 0 to 100 scale
Protocol: (§2) Compounds evaluated in this test were formulated in a non-phytotoxic solvent mixture which included a surfactant and applied to plants that were in the 1- to 4-leaf stage (postemergence application). A mixture of sandy loam soil and greenhouse potting mix in a 60:40 ratio was used for the postemergence test.
(§3) Plantings of these crops and weed species were adjusted to produce plants of appropriate size for the postemergence test. All plant species were grown using normal greenhouse practices. Crop and weed species include annual bluegrass (Poa annua), blackgrass (Alopecurus myosuroides), black nightshade (Solanum nigra), chickweed (Stellaria media), common poppy (Papaver rhoeas), deadnettle (Lamium amplexicaule), downy brome (Bromus tectorum), field violet (Viola arvensis), galium (Galium aparine), green foxtail (Setaria viridis), Italian ryegrass (Lolium multiflorum), jointed goatgrass (Aegilops cylindrica), kochia (Kochia scoparia), lambsquarters (Chenopodium album), littleseed canarygrass (Phalaris minor), rape (Brassica napus), redroot pigweed (Amaranthus retroflexus), Russian thistle (Salsola kali), scentless chamomile (Matricaria inodora), spring barley (Hordeum vulgare), sugar beet (Beta vulgaris), sunflower (Helianthus annuus), ivyleaf speedwell (Veronica hederaefolia), spring wheat (Triticum aestivum), winter wheat (Triticum aestivum), wild buckwheat (Polygonum convolvulus), wild mustard (Sinapis arvensis), wild oat (Avena fatua), windgrass (Apera spica-venti) and winter barley (Hordeum vulgare).
(§4) Treated plants and untreated controls were maintained in a greenhouse for approximately 21 to 28 days, after which all treated plants were compared to untreated controls and visually evaluated. […] A dash response (-) means no test result.

[8] = system: wild mustard; test: Test E wild mustard; type: in vivo, Sinapis arvensis; conditions: Postemergence; for Plant response rating, Wild mustard: 0 to 100 scale
Protocol: […] A mixture of sandy loam soil and greenhouse potting mix in a 60:40 ratio was used for the postemergence test.
as §3, §4

[9] = system: spring wheat; test: Test E spring wheat; type: in vivo, Triticum aestivum; conditions: Preemergence
[10] = system: wild oat; test: Test E wild oat; type: in vivo, Avena fatua; conditions: Postemergence, 0 to 100 scale, 0 is no effect, 100 is complete control
In short: as §1

[11] = system: black nightshade; test: Test E black nightshade; type: in vivo, Solanum nigra; conditions: Preemergence
[12] = system: green foxtail; test: Test E green foxtail; type: in vivo, Setaria viridis; conditions: Postemergence; for Plant response rating, Green foxtail: 0 to 100 scale
In short: as §1

[13] = system: barnyardgrass; test: Test C postemergence barnyardgrass; type: in vivo, Echinochloa crus-galli; conditions: 0 to 100 scale, 0 no effect, 100 complete control
In short: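 Scores (0 = no effect, 100 = complete control) come from visual comparison with untreated controls after about 14–21 days. Spray formulation was a non-phytotoxic solvent mixture including surfactant; plants grew in a 60:40 sandy loam–potting mix blend.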

[14] = system: lambsquarters; test: Test E lambsquarters; type: in vivo, Chenopodium album; conditions: Preemergence
[15] = system: common poppy; test: Test E common poppy; type: in vivo, Papaver rhoeas; conditions: Postemergence; for Plant response rating, Common poppy: 0 to 100 scale
Protocol: as §2, §3, §4

[16] = system: wild buckwheat; test: Test E wild buckwheat; type: in vivo, Polygonum convolvulus; conditions: Preemergence
[17] = system: wild poinsettia; test: Test C postemergence wild poinsettia; type: in vivo, Euphorbia heterophylla; conditions: 0 to 100 scale, 0 no effect, 100 complete control
Protocol: as §2, with “grown for various periods of time before treatment” for “in the 1- to 4-leaf stage”
Plantings of these crops and weed species were adjusted to produce plants of appropriate size for the postemergence test. All plant species were grown using normal greenhouse practices. Crop and weed species include arrowleaf sida (Sida rhombifolia), barnyardgrass (Echinochloa crus-galli), cocklebur (Xanthium strumarium), common ragweed (Ambrosia elatior), corn (Zea mays), cotton (Gossypium hirsutum), eastern black nightshade (Solanum ptycanthum), fall panicum (Panicum dichotomiflorum), field bindweed (Convolvulus arvensis), giant foxtail (Setaria faberii), hairy beggarticks (Bidens pilosa), ivyleaf morningglory (Ipomoea hederacea), johnsongrass (Sorghum halepense), ladysthumb smartweed (Polygonum persicaria), lambsquarters (Chenopodium album), large crabgrass (Digitaria sanguinalis), purple nutsedge (Cyperus rotundus), redroot pigweed (Amaranthus retroflexus), soybean (Glycine max), surinam grass (Brachiaria decumbens), velvetleaf (Abutilon theophrasti) and wild poinsettia (Euphorbia heterophylla).
Treated plants and untreated controls were maintained in a greenhouse for approximately 14, to 21 days, after which all treated plants were compared to untreated controls and visually evaluated. Plant response ratings, summarized in Table C, were based upon a 0 to 100 scale where 0 was no effect and 100 was complete control. A dash response (−) means no test result.

[18] = Rate 16 g/ha, 0 no injury, 100 complete control
[19] = Rate 32 g/ha, 0 no injury, 100 complete control
[20] = Rate 64 g/ha, 0 no injury, 100 complete control
[21] = Rate 125 g/ha, 0 no injury, 100 complete control
[22] = Rate 125 g/ha, 0 is no effect, 100 is complete control
[23] = Rate 250 g/ha, 0 to 100 scale where 0 is no effect and 100 is complete control
[24] = Rate 500 g/ha, 0 is no effect, 100 is complete control
[25] = Rate 125 g/ha, 0 to 100 scale (0 no effect, 100 complete control)
[26] = Rate 500 g/ha, 0 to 100 scale where 0 is no effect and 100 is complete control

## CC(C)N(C(=O)n1oc(=O)n(C2CCCCCC2)c1=O)c1ccc(F)cc1F [Compound 342]
[1]; Rate 64 g/ha
  Green foxtail plant response rating: 0
[1]; Rate 125 g/ha
  Green foxtail plant response rating: 60
[2]; [18]
  Plant response rating, P. morninglory: 0
[2]; [19]
  Plant response rating, P. morninglory: 0
[2]; [20]
  Plant response rating, P. morninglory: 0
[2]; [21]
  Plant response rating, P. morninglory: 0
[2]; Rate 250 g/ha
  Plant response rating, P. morninglory: 0
[3]; [18]
  Plant response rating, Johnsongrass: 0
[3]; [19]
  Plant response rating, Johnsongrass: 0
[3]; [20]
  Plant response rating, Johnsongrass: 0
[3]; [21]
  Plant response rating, Johnsongrass: 0
[3]; Rate 250 g/ha
  Plant response rating, Johnsongrass: 0

## CC(C)N(C(=O)n1oc(=O)n(C2CC2)c1=O)c1ccc(F)cc1 [Compound 242]
[4]; Rate 62 g/ha
  Plant response rating Lambsquarters: 10
[4]; [22]
  Plant response rating Lambsquarters: 0
[4]; [23]
  Lambsquarters plant response rating: 0
[4]; [24]
  Plant response rating Lambsquarters: 0
[5]; [25]
  Plant response rating, LS canarygrass: 100
[5]; Rate 250 g/ha
  LS canarygrass plant response rating (0 to 100 scale): 100
[5]; [26]
  Plant response rating, LS canarygrass: 100
[6]; [25]
  Plant response rating, Sugar beet: 30
[6]; Rate 250 g/ha
  Sugar beet plant response rating (0 to 100 scale): 50
[6]; [26]
  Plant response rating, Sugar beet: 65
[7]; Rate 62 g/ha
  Plant response rating, Annual bluegras: 95
[7]; [22]
  Plant response rating, Annual bluegras: 20
[7]; [23]
  Annual bluegras plant response rating: 10
[7]; [24]
  Plant response rating, Annual bluegras: 80
[8]; Rate 62 g/ha
  Plant response rating, Wild mustard: 0
[8]; [22]
  Plant response rating, Wild mustard: 20
[8]; [23]
  Wild mustard plant response rating: 20
[8]; [24]
  Plant response rating, Wild mustard: 5
[1]; Rate 64 g/ha
  Green foxtail plant response rating: 100
[1]; Rate 125 g/ha
  Green foxtail plant response rating: 100
[2]; [18]
  Plant response rating, P. morninglory: 0
[2]; [19]
  Plant response rating, P. morninglory: 0
[2]; [20]
  Plant response rating, P. morninglory: 0
[2]; [21]
  Plant response rating, P. morninglory: 0
[2]; Rate 250 g/ha
  Plant response rating, P. morninglory: 0
[9]; [25]
  Plant response rating, Spring Wheat: 55
[9]; Rate 250 g/ha
  Spring Wheat plant response rating (0 to 100 scale): 60
[9]; [26]
  Plant response rating, Spring Wheat: 100
[10]; Rate 125 g/ha
  Plant response rating, Wild oat: 0
[10]; Rate 500 g/ha
  Plant response rating, Wild oat: 20
[11]; [25]
  Plant response rating, Blk nightshade: 70
[11]; Rate 250 g/ha
  Blk nightshade plant response rating (0 to 100 scale): 95
[11]; [26]
  Plant response rating, Blk nightshade: 95
[12]; Rate 62 g/ha
  Plant response rating, Green foxtail: 60
[12]; [22]
  Plant response rating, Green foxtail: 30
[12]; [23]
  Green foxtail plant response rating: 60
[12]; [24]
  Plant response rating, Green foxtail: 70
[13]; Rate 140 g/ha
  Plant response rating, Barnyardgrass: 80
[13]; Rate 280 g/ha
  Plant response rating, Barnyardgrass: 85
[13]; Rate 560 g/ha
  Plant response rating, Barnyardgrass: 90
[13]; Rate 1120 g/ha
  Plant response rating, Barnyardgrass: 95
[14]; [25]
  Plant response rating Lambsquarters: 100
[14]; Rate 250 g/ha
  Lambsquarters plant response rating (0 to 100 scale): 100
[14]; [26]
  Plant response rating Lambsquarters: 100
[3]; [18]
  Plant response rating, Johnsongrass: 0
[3]; [19]
  Plant response rating, Johnsongrass: 0
[3]; [20]
  Plant response rating, Johnsongrass: 40
[3]; [21]
  Plant response rating, Johnsongrass: 30
[3]; Rate 250 g/ha
  Plant response rating, Johnsongrass: 90
[15]; Rate 62 g/ha
  Plant response rating, Common poppy: 55
[15]; [22]
  Plant response rating, Common poppy: 40
[15]; [23]
  Common poppy plant response rating: 20
[15]; [24]
  Plant response rating, Common poppy: 0
[16]; [25]
  Plant response rating, Wild buckwheat: 60
[16]; Rate 250 g/ha
  Wild buckwheat plant response rating (0 to 100 scale): 70
[16]; [26]
  Plant response rating, Wild buckwheat: 100
[17]; Rate 140 g/ha
  Plant response rating Wild poinsettia: 0
[17]; Rate 280 g/ha
  Plant response rating Wild poinsettia: 0
[17]; Rate 560 g/ha
  Plant response rating Wild poinsettia: 0
[17]; Rate 1120 g/ha
  Plant response rating Wild poinsettia: 85
